In patent US20260021138A1, “EXTRACELLULAR VESICLES AND PARTICLES FROM IMMUNE CELLS FOR PROVIDING ANTICANCER ACTIVITY” (LIETUVOS SVEIKATOS MOKSLU UNIVERSITETAS, priority 2022, published 2026):

Key:
[1] = test system: U-937-derived macrophage cell cultures; experiment: Total cell number after poly(I:C) treatment, macrophages; type: cell-based, human; conditions: 24 hours after the poly(I:C) treatment; data not shown
Experimental: CELL CULTURES FOR EV PRODUCTION. Human monocytes U-937 (ATCC, CRL1593.2) were maintained in RPMI-1640 medium with GlutaMAX (Thermo Fisher Scientific) supplemented with 10% exosome-free FBS (Thermo Fisher Scientific) and 1000 IU/mL penicillin-streptomycin (Gibco, Thermo Fisher Scientific). U-937 were grown in T150 (30 mL medium) tissue culture flasks at 37° C. (incubator New Brunswick Galaxy 170S, Eppendorf) until the settled cells covered 65-75% of the vial bottom. For induction of cell differentiation, the cell medium was changed to Macrophage-SFM medium (Thermo Fisher Scientific) with 200 nM phorbol myristate acetate (PMA, Merck) and the cells were left for 24 hours in a Soft Flask. After this, the medium was replaced with Macrophage-SFM without PMA and kept in the incubator for 48 hours.
For TLR-3 pathway stimulation, U-937-derived macrophages and HMC-3 cells were treated with 10 μg/mL poly(I:C) for 1 hour (FIG. 1A, C). For induction of large EV shedding, the stimulation time was increased to 8 hours (FIG. 1B, D). After the treatments, the large EVs were collected by a series of centrifugation. First, the media were centrifuged for 10 min at 800×g to remove cells and large cell debri. Then, the supernatant was centrifuged at 14000×g for 30 minutes to spin down large EVs. The EV pellets were resuspended in PBS by pipetting up and down several times. […]

[2] = test system: human microglial cultures (HMC-3); experiment: Total cell number after poly(I:C) treatment, microglia; type: cell-based; conditions: 24 hours after the poly(I:C) treatment; data not shown
HROG-36 GBM 3D spheroids = experiment: GBM cell migration area in 3D cell cultures; type: cell-based, human; conditions: at higher concentrations
Experimental: For EV internalisation assessment in 2D GBM cell cultures, AF555-labelled EV solutions in PBS were applied to mixed glial and microglial cultures making a final concentration of 50 μg/mL of total EV protein. The cells were visualised by a fluorescent microscope Zeiss Axio Observer.Z1 (Carl Zeiss, Jena, Germany). For 3D GBM cell cultures, U-bottom 96-well plates were coated with a thin layer of 2% agarose prior to cell seeding. The cells were seeded at a density of 10000 per well, and the plate was centrifuged at 280×g for 7 min. […] The spheroid diameter was monitored under a light microscope on each day of culture (FIG. 17). […]
For EV efficiency on GBM cell migration in 3D GBM cell cultures, microscopic images of the cultures were taken at the start and at the end (72 hours), and the area covered by cells was calculated. […] Using the ImageJ software package, the area occupied by migrating spheroid cells was assessed, and the area of the spheroid at the initial time point was subtracted, as indicated in FIG. 24C. Representative images before and after treatment with U-937-derived macrophage and HMC-3 microglial EVs with and without DOX or TMZ and the same amount of free DOX are presented in FIG. 20-23, and quantitative assessment results—in FIG. 24.

Compound | Total cell numbers decreased by [1] [%] | cell numbers significantly increased by [2] [%] | GBM migration suppression, free drug versus loaded EVs (HROG-36 GBM 3D spheroids)
poly(I:C) | 15±2 | 22±7 | 
COc1cccc2c1C(=O)c1c(O)c3c(c(O)c1C2=O)C[C@@](O)(C(=O)CO)C[C@@H]3O[C@H]1C[C@H](N)[C@H](O)[C@H](C)O1 [DOX, doxorubicin] |  |  | more efficient
